Key:
human H4 = biological target: T1, human H4 (Homo sapiens, UniProt Q9H3N8); test: In vitro histamine receptor cell-based assay (aequorin bioluminescence), H4 antagonism; settings: CHO-K1 cells expressing human H4, aequorin and Gα16; histamine at EC80; read-out: H4 Antagonist EC50
T1 construct: host or cells: CHO-K1
Protocol: (§1) The cell-based assays utilize an aequorin dependent bioluminescence signal. Doubly-transfected, stable CHO-K1 cell lines expressing human H1 or H4, mitochondrion-targeted aequorin, and (H4 only) human G protein Gα16 are obtained from Perkin-Elmer. Cells are maintained in F12 (Ham's) growth medium, containing 10% (vol./vol.) fetal bovine serum, penicillin (100 IU/mL), streptomycin (0.1 mg/mL), zeocin (0.25 mg/mL) and geneticin (0.40 mg/mL). Cell media components are from Invitrogen, Inc. One day prior to assay, the growth medium is replaced with the same, excluding zeocin and geneticin.
(§2) For assay preparation, growth medium is aspirated, and cells are rinsed with calcium-free, magnesium-free phosphate-buffered saline, followed by two to three minute incubation in Versene (Invitrogen, Inc.) at 37° C. Assay medium (DMEM:F12 [50:50], phenol-red free, containing 1 mg/mL protease-free bovine serum albumin) is added to collect the released cells, which are then centrifuged. The cell pellet is re-suspended in assay medium, centrifuged once more, and re-suspended in assay medium to a final density of 5×10^6 cells/mL. Coelenterazine-h dye (500 μM in ethanol) is added to a final concentration of 5 μM, and mixed immediately. The conical tube containing the cells is then wrapped with foil to protect the light-sensitive dye. The cells are incubated for four hours further at room temperature (approximately 21° C.) with end-over-end rotation to keep them in suspension.
(§3) Just before assay, the dye-loaded cells are diluted to 0.75×10^6 cells/mL (H1 receptor) or 1.5×10^6 cells/mL (H4 receptor) with additional assay medium. Cells are dispensed to 1536 well micro-titer plates at 3 μL/well. To assay receptor antagonism, 60 nl of 100× concentration test compounds in 100% dimethyl sulfoxide (DMSO) are dispensed to the wells, one compound per well, by passive pin transfer, and the plates are incubated for 15 minutes at room temperature. Assay plates are then transferred to a Lumilux bioluminescence plate reader (Perkin-Elmer) equipped with an automated 1536 disposable tip pipette. The pipette dispenses 3 μL/well of agonist (histamine, at twice the final concentration, where final concentration is a previously determined EC80) in assay medium, with concurrent bioluminescence detection. […]
(§4) CCD image capture on the Lumilux includes a 5 second baseline read prior to agonist addition, and generally a 40 second read per plate after agonist addition. A decrease in bioluminescence signal (measured either as area-under-the-curve, or maximum signal amplitude minus minimum signal amplitude) correlates with receptor antagonism in a dose dependent manner. […] Efficacy is measured as a percentage of positive control activity.

human H1 = biological target: T2, human H1 (Homo sapiens, UniProt P35367); test: In vitro histamine receptor cell-based assay (aequorin bioluminescence), H1 antagonism; settings: CHO-K1 cells expressing human H1 and aequorin; histamine at EC80; read-out: H1 Antagonist EC50
T2 construct: host or cells: CHO-K1
Protocol: as §1, §2, §3, §4

T2 sequence (P35367 whole entry): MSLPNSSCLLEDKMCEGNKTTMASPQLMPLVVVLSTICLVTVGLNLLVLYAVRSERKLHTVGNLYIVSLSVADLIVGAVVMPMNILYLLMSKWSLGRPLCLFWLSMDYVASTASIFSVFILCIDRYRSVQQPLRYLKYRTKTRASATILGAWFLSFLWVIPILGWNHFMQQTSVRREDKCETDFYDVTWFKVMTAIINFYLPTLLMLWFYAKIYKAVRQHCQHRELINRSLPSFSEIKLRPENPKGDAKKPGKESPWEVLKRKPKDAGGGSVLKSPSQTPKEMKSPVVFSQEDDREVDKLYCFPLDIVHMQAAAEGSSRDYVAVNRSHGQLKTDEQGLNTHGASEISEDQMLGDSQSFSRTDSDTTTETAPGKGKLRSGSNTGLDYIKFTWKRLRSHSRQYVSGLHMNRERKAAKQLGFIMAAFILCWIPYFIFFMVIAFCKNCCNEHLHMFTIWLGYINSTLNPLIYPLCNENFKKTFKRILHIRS
T1 sequence (Q9H3N8 whole entry): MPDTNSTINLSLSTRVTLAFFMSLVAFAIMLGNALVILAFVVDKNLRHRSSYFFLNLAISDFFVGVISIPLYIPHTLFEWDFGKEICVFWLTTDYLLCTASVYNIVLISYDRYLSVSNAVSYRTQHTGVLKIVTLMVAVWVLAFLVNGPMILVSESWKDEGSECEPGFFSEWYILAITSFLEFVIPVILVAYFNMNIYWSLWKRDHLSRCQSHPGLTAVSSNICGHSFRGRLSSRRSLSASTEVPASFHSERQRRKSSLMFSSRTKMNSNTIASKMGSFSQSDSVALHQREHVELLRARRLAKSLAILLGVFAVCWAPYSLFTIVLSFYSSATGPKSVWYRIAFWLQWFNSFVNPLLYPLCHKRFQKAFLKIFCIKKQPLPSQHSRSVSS

## Cc1nc2c3cc(Cl)sc3nc(N3CCNCC3)n2n1 [Example 2, 8-chloro-2-methyl-5-(piperazin-1-yl)thieno[3,2-e][1,2,4]-triazolo[1,5-c]pyrimidine]
Human H4
  EC50: ≤ 10 µM
Human H1
  EC50: > 10 µM

## Cc1nc2c3sc(Cl)cc3nc(N3CCNCC3)n2n1 [Example 4, 8-chloro-2-methyl-5-(piperazin-1-yl)thieno[2,3-e][1,2,4]triazolo[1,5-c]pyrimidine]
Human H4
  EC50: > 10 µM
Human H1
  EC50: > 10 µM

## Cc1nc2c3cc(Cl)sc3nc(N3CCN(C)CC3)n2n1 [Example 1, 8-chloro-2-methyl-5-(4-methylpiperazin-1-yl)thieno[3,2-e][1,2,4]triazolo[1,5-c]pyrimidine]
Human H4
  EC50: ≤ 10 µM
Human H1
  EC50: > 10 µM

## Cc1nc2c3sc(Cl)cc3nc(N3CCN(C)CC3)n2n1 [Example 3, 8-chloro-2-methyl-5-(4-methylpiperazin-1-yl)thieno[2,3-e][1,2,4]triazolo[1,5-c]pyrimidine]
Human H4
  EC50: ≤ 10 µM
Human H1
  EC50: > 10 µM
